# In PubChem BioAssay AID180 (DTP/NCI, 2004):
# “And” between values parts separate entries of the source, which are not always exact repeats. Equal values may be shown once.
# Test system: BDF1 mice, Adenocarcinoma 755 s.c., tumor weight T/C
# Assay: NCI In Vivo Anticancer Drug Screen. Data for tumor model Adenocarcinoma 755 (subcutaneous) in B6D2F1 (BDF1) mice
# Conditions: endpoint: mean tumor weight, higher = larger tumour
# Method in brief: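 In vivo antitumor screen on a transplantable tumor line. Result equals the measure in compound-treated animals divided by the same measure in vehicle controls.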
# [1] = dose: 12.5 mg/kg/injection, schedule: Q01DX011 (ip), vehicle: methylcellulose (MC)
# [2] = dose: 25.0 mg/kg/injection, schedule: Q01DX011 (ip), vehicle: methylcellulose (MC)
# [3] = dose: 50.0 mg/kg/injection, schedule: Q01DX011 (ip), vehicle: methylcellulose (MC)
# [4] = dose: 100.0 mg/kg/injection, schedule: Q01DX011 (ip), vehicle: methylcellulose (MC)
# [5] = dose: 200.0 mg/kg/injection, schedule: Q01DX011 (ip), vehicle: other
# [6] = dose: 400.0 mg/kg/injection, schedule: Q01DX011 (ip), vehicle: other
# [7] = dose: 30.0 mg/kg/injection, schedule: Q01DX011 (ip), vehicle: carboxymethylcellulose (CMC)
# [8] = dose: 60.0 mg/kg/injection, schedule: Q01DX011 (ip), vehicle: carboxymethylcellulose (CMC)
# [9] = dose: 120.0 mg/kg/injection, schedule: Q01DX011 (ip), vehicle: carboxymethylcellulose (CMC)
# [10] = dose: 240.0 mg/kg/injection, schedule: Q01DX011 (ip), vehicle: carboxymethylcellulose (CMC)
structure (smiles),measurement,setting,value
CCN(CC)P(=O)(N1CC1)N1CC1,T/C,"dose: 0.5 mg/kg/injection, schedule: Q01DX011 (ip), vehicle: saline",60 % of control
same,T/C,"dose: 1.0 mg/kg/injection, schedule: Q01DX011 (ip), vehicle: saline",68 % of control
same,T/C,"dose: 2.0 mg/kg/injection, schedule: Q01DX011 (ip), vehicle: other",50 % of control
same,T/C,"dose: 2.0 mg/kg/injection, schedule: Q01DX011 (ip), vehicle: saline",43 % of control and 47 % of control
same,T/C,"dose: 4.0 mg/kg/injection, schedule: Q01DX011 (ip), vehicle: other",26 % of control
same,T/C,"dose: 4.0 mg/kg/injection, schedule: Q01DX011 (ip), vehicle: saline",18 % of control and 39 % of control
same,T/C,"dose: 8.0 mg/kg/injection, schedule: Q01DX011 (ip), vehicle: other",14 % of control
same,T/C,"dose: 8.0 mg/kg/injection, schedule: Q01DX011 (ip), vehicle: saline",10 % of control
OCn1cccn1,T/C,"dose: 20.0 mg/kg/injection, schedule: Q01DX011 (ip), vehicle: other",68 % of control
same,T/C,"dose: 20.0 mg/kg/injection, schedule: Q01DX011 (ip), vehicle: saline",89 % of control
same,T/C,"dose: 40.0 mg/kg/injection, schedule: Q01DX011 (ip), vehicle: other",23 % of control
same,T/C,"dose: 40.0 mg/kg/injection, schedule: Q01DX011 (ip), vehicle: saline",45 % of control
same,T/C,"dose: 80.0 mg/kg/injection, schedule: Q01DX011 (ip), vehicle: other",2 % of control
same,T/C,"dose: 80.0 mg/kg/injection, schedule: Q01DX011 (ip), vehicle: saline",27 % of control
same,T/C,"dose: 160.0 mg/kg/injection, schedule: Q01DX011 (ip), vehicle: saline",2 % of control
CC(C)Cn1cnc2c(SCc3ccc(Cl)cc3Cl)nc(N)nc21,T/C,"dose: 9.0 mg/kg/injection, schedule: Q01DX011 (ip), vehicle: other",78 % of control
same,T/C,[1],41 % of control
same,T/C,"dose: 18.0 mg/kg/injection, schedule: Q01DX011 (ip), vehicle: other",78 % of control
same,T/C,[2],65 % of control
same,T/C,"dose: 37.0 mg/kg/injection, schedule: Q01DX011 (ip), vehicle: other",92 % of control
same,T/C,"dose: 38.0 mg/kg/injection, schedule: Q01DX011 (ip), vehicle: methylcellulose (MC)",74 % of control
same,T/C,[3],87 % of control
same,T/C,"dose: 75.0 mg/kg/injection, schedule: Q01DX011 (ip), vehicle: methylcellulose (MC)",113 % of control
same,T/C,[4],69 % of control
same,T/C,"dose: 150.0 mg/kg/injection, schedule: Q01DX011 (ip), vehicle: methylcellulose (MC)",80 % of control
same,T/C,[5],7 % of control and 15 % of control
same,T/C,"dose: 300.0 mg/kg/injection, schedule: Q01DX011 (ip), vehicle: methylcellulose (MC)",59 % of control
same,T/C,[6],24 % of control
same,T/C,"dose: 600.0 mg/kg/injection, schedule: Q01DX011 (ip), vehicle: methylcellulose (MC)",91 % of control
NC(=O)c1n[nH]nc1N=Nc1c(O)ccc2ccccc12,T/C,"dose: 16.0 mg/kg/injection, schedule: Q01DX011 (ip), vehicle: carboxymethylcellulose (CMC)",85 % of control
same,T/C,"dose: 31.0 mg/kg/injection, schedule: Q01DX011 (ip), vehicle: carboxymethylcellulose (CMC)",120 % of control
same,T/C,"dose: 62.0 mg/kg/injection, schedule: Q01DX011 (ip), vehicle: carboxymethylcellulose (CMC)",204 % of control
CCCn1cnc2c(=S)nc(N)[nH]c21,T/C,"dose: 0.03 mg/kg/injection, schedule: Q01DX011 (ip), vehicle: methylcellulose (MC)",103 % of control
same,T/C,"dose: 0.06 mg/kg/injection, schedule: Q01DX011 (ip), vehicle: methylcellulose (MC)",82 % of control
same,T/C,"dose: 0.11 mg/kg/injection, schedule: Q01DX011 (ip), vehicle: methylcellulose (MC)",45 % of control
same,T/C,"dose: 0.22 mg/kg/injection, schedule: Q01DX011 (ip), vehicle: methylcellulose (MC)",6 % of control and 7 % of control
same,T/C,"dose: 0.44 mg/kg/injection, schedule: Q01DX011 (ip), vehicle: methylcellulose (MC)",8 % of control
same,T/C,"dose: 0.88 mg/kg/injection, schedule: Q01DX011 (ip), vehicle: methylcellulose (MC)",4 % of control
same,T/C,"dose: 1.75 mg/kg/injection, schedule: Q01DX011 (ip), vehicle: methylcellulose (MC)",4 % of control
CC[C@]1(O)C[C@H]2CN(CCc3c([nH]c4ccccc34)[C@@](C(=O)OC)(c3cc4c(cc3OC)N(C)[C@H]3[C@@](O)(C(=O)OC)[C@H](OC(C)=O)[C@]5(CC)C=CCN6CC[C@]43[C@@H]65)C2)C1,T/C,"dose: 0.05 mg/kg/injection, schedule: Q01DX011 (ip), vehicle: carboxymethylcellulose (CMC)",68 % of control and 76 % of control
same,T/C,"dose: 0.1 mg/kg/injection, schedule: Q01DX011 (ip), vehicle: carboxymethylcellulose (CMC)",94 % of control and 87 % of control
C[C@]12C=CC(=O)C=C1CC[C@@H]1[C@@H]2CC[C@]2(C)OC(=O)CC[C@@H]12,T/C,"dose: 125.0 mg/kg/injection, schedule: Q01DX011 (sc), vehicle: steriod suspending solution",80 % of control
same,T/C,"dose: 250.0 mg/kg/injection, schedule: Q01DX011 (sc), vehicle: steriod suspending solution",77 % of control
same,T/C,"dose: 500.0 mg/kg/injection, schedule: Q01DX011 (sc), vehicle: steriod suspending solution",109 % of control
same,T/C,"dose: 1000.0 mg/kg/injection, schedule: Q01DX011 (sc), vehicle: steriod suspending solution",75 % of control
CC(C)Cn1cnc2c(SC(C)C)nc(N)nc21,T/C,"dose: 6.25 mg/kg/injection, schedule: Q01DX011 (ip), vehicle: methylcellulose (MC)",56 % of control
same,T/C,[1],19 % of control
same,T/C,[2],4 % of control
same,T/C,[3],1 % of control
CCCCn1cnc2c(SCc3ccc(Cl)cc3Cl)nc(N)nc21,T/C,[3],61 % of control
same,T/C,[4],46 % of control
same,T/C,"dose: 200.0 mg/kg/injection, schedule: Q01DX011 (ip), vehicle: methylcellulose (MC)",35 % of control
same,T/C,"dose: 400.0 mg/kg/injection, schedule: Q01DX011 (ip), vehicle: methylcellulose (MC)",5 % of control
NS(=O)(=O)c1nc2nc[nH]c(=O)c2[nH]1,T/C,[7],113 % of control
same,T/C,[8],163 % of control
same,T/C,[9],104 % of control
same,T/C,[10],113 % of control
O=C(Nc1nc2c(ncn2C2CC(OC(=O)c3ccccc3)C(COC(=O)c3ccccc3)O2)c(=O)[nH]1)c1ccccc1 (stereo unspecified),T/C,[7],103 % of control
same,T/C,[8],94 % of control
same,T/C,[9],113 % of control
same,T/C,[10],124 % of control
CC(=O)OCC(=O)[C@@]1(O)CC[C@H]2[C@@H]3CCC4=CC(=O)C=C[C@]4(C)[C@@]3(F)[C@@H](O)C[C@@]21C,T/C,"dose: 0.07 mg/kg/injection, schedule: Q01DX011 (sc), vehicle: steriod suspending solution",90 % of control
same,T/C,"dose: 0.14 mg/kg/injection, schedule: Q01DX011 (sc), vehicle: steriod suspending solution",77 % of control
same,T/C,"dose: 0.28 mg/kg/injection, schedule: Q01DX011 (sc), vehicle: steriod suspending solution",41 % of control
same,T/C,"dose: 1.12 mg/kg/injection, schedule: Q01DX011 (sc), vehicle: steriod suspending solution",54 % of control
same,T/C,"dose: 2.25 mg/kg/injection, schedule: Q01DX011 (sc), vehicle: steriod suspending solution",38 % of control
same,T/C,"dose: 4.5 mg/kg/injection, schedule: Q01DX011 (sc), vehicle: steriod suspending solution",26 % of control and 38 % of control
same,T/C,"dose: 9.0 mg/kg/injection, schedule: Q01DX011 (sc), vehicle: steriod suspending solution",21 % of control
same,T/C,"dose: 18.0 mg/kg/injection, schedule: Q01DX011 (sc), vehicle: steriod suspending solution",17 % of control
same,T/C,"dose: 24.0 mg/kg/injection, schedule: Q01DX011 (sc), vehicle: steriod suspending solution",9 % of control and 23 % of control
same,T/C,"dose: 25.0 mg/kg/injection, schedule: Q01DX011 (sc), vehicle: steriod suspending solution",23 % of control and 28 % of control
same,T/C,"dose: 36.0 mg/kg/injection, schedule: Q01DX011 (sc), vehicle: steriod suspending solution",11 % of control
same,T/C,"dose: 50.0 mg/kg/injection, schedule: Q01DX011 (sc), vehicle: steriod suspending solution",13 % of control and 24 % of control
same,T/C,"dose: 100.0 mg/kg/injection, schedule: Q01DX011 (sc), vehicle: steriod suspending solution",9 % of control and 11 % of control
CC(=O)NCCc1ccccc1,T/C,"dose: 12.5 mg/kg/injection, schedule: Q01DX011 (ip), vehicle: other",106 % of control
same,T/C,"dose: 25.0 mg/kg/injection, schedule: Q01DX011 (ip), vehicle: other",71 % of control
same,T/C,"dose: 50.0 mg/kg/injection, schedule: Q01DX011 (ip), vehicle: other",99 % of control
same,T/C,"dose: 100.0 mg/kg/injection, schedule: Q01DX011 (ip), vehicle: other",87 % of control
same,T/C,[5],59 % of control
same,T/C,[6],49 % of control
Cc1ccc(C)c(N=Nc2c(S(=O)(=O)O)cc3cc(NC(=O)Nc4ccc5c(O)c(N=Nc6ccc7cc(S(=O)(=O)O)ccc7c6)c(S(=O)(=O)O)cc5c4)ccc3c2O)c1,T/C,"dose: 45.0 mg/kg/injection, schedule: Q01DX011 (ip), vehicle: carboxymethylcellulose (CMC)",59 % of control
